Experimental data from ChEMBL document CHEMBL3351300, “GnRH antagonists: the promise of treating sex-hormone-related diseases” (ACS Med Chem Lett, 2014).

Molecular target: T1, Gonadotropin-releasing hormone receptor (Homo sapiens, UniProt P30968)
T1 sequence (P30968 whole entry): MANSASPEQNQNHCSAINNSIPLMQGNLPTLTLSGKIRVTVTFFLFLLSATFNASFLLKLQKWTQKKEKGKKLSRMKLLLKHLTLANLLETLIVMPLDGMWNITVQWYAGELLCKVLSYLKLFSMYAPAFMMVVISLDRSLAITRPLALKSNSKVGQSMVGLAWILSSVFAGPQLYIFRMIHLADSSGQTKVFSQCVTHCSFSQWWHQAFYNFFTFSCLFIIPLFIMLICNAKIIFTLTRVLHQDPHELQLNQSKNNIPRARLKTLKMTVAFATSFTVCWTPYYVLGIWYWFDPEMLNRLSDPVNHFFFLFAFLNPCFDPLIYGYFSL
Experiment: Antagonist activity against human GnRH receptor expressed in CHO cells by IP-one HTRF assay
Assay type: cell-based

Structure (SMILES)	IC50
O=C(NCc1ncc(Cl)cc1C(F)(F)F)c1ccc2c(c1)C1(CCS(=O)(=O)CC1)C(C1CC1)N2S(=O)(=O)c1ccc(F)cc1 (single isomer, unassigned; enantiomer 1)	3.3 nM
O=C(NCc1ncc(Cl)cc1C(F)(F)F)c1ccc2c(c1)C1(CCS(=O)(=O)CC1)C(C1CC1)N2S(=O)(=O)c1ccc(F)cc1 (single isomer, unassigned; enantiomer 2)	4080 nM
O=C(NCc1ncc(C(F)(F)F)cc1Cl)c1ccc2c(c1)C1(CCS(=O)(=O)CC1)C(C1CC1)N2S(=O)(=O)c1cccc(OC(F)(F)F)c1 (single isomer, unassigned; enantiomer 2)	4210 nM
N#Cc1cccc(S(=O)(=O)N2c3ccc(C(=O)NCc4ncc(C(F)(F)F)cc4F)cc3C3(CCS(=O)(=O)CC3)C2C2CC2)c1 (single isomer, unassigned; enantiomer 1)	107 nM
O=C(NCc1ncc(C(F)(F)F)cc1Cl)c1ccc2c(c1)C1(CCS(=O)(=O)CC1)C(C1CC1)N2S(=O)(=O)c1ccc(Cl)cc1 (single isomer, unassigned; enantiomer 1)	9350 nM
O=C(NCc1ncc(C(F)(F)F)cc1Cl)c1ccc2c(c1)C1(CCS(=O)(=O)CC1)C(C1CC1)N2S(=O)(=O)c1ccc(Cl)cc1 (single isomer, unassigned; enantiomer 2)	5.5 nM
O=C(NCc1ncc(C(F)(F)F)cc1Cl)c1ccc2c(c1)C1(CCS(=O)(=O)CC1)C(C1CC1)N2S(=O)(=O)c1cccc(OC(F)(F)F)c1 (single isomer, unassigned; enantiomer 1)	68 nM
N#Cc1cccc(S(=O)(=O)N2c3ccc(C(=O)NCc4ncc(C(F)(F)F)cc4F)cc3C3(CCS(=O)(=O)CC3)C2C2CC2)c1 (single isomer, unassigned; enantiomer 2)	2310 nM
